Measured values from US20240384268A1, “Oligonucleotides” (Hudson Institute of Medical Research, priority 2021, published 2024).
In the oligonucleotide strings, read from the 5' end, every base follows the letter of its sugar. An asterisk marks phosphorothioate; unmarked linkages are phosphodiester. Other units and linkages are bracketed, terminal groups are in braces. A string of capitals states the bases alone. d = 2'-deoxy (DNA); m = 2'-O-methyl

Key:
[1] = molecular target: T1, TLR7 (Mus musculus, UniProt P58681); test: Guanosine-induced TNFα in primary BMDMs; assay type: cell-based; set-up: endogenous in cells; host or cells: primary BMDMs from wild-type mice; settings: WT primary BMDMs; 200 nM ASO 30 min; 500 μM Guanosine overnight
T1 sequence (P58681 27-1050): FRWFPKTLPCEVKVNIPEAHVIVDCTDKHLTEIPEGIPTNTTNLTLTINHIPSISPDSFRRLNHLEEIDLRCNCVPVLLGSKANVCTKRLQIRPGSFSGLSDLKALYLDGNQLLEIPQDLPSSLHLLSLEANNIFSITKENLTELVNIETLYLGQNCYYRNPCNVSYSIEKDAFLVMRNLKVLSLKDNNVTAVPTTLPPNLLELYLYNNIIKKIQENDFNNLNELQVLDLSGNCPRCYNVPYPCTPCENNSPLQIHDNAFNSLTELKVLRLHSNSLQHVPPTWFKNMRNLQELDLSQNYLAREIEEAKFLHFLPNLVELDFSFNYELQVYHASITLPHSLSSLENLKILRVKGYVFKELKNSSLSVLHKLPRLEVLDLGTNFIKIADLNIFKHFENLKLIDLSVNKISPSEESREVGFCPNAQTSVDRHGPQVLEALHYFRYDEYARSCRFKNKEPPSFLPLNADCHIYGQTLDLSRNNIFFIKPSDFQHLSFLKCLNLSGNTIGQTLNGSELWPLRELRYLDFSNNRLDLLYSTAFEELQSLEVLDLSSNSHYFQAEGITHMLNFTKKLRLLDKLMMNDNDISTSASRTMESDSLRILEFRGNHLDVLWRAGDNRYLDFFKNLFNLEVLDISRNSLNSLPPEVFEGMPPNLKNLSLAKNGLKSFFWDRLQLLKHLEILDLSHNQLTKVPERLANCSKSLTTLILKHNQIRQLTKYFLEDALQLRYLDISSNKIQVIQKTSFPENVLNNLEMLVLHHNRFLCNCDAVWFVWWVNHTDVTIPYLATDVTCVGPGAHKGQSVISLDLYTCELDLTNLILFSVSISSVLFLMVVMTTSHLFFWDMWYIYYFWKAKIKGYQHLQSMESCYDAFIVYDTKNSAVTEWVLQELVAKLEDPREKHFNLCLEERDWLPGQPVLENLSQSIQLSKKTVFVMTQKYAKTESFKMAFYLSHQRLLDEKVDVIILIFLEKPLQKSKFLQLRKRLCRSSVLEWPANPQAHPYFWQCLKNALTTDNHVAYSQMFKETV

[2] = molecular target: T2, TLR8 (Homo sapiens, UniProt Q9NR97); test: R848-driven IP-10 production in THP-1 cells (TLR8); assay type: cell-based; set-up: expressed in transfected cells; dose or concentration left out as unconfirmed; settings: R848 7 h; for effect of 3-mer 2′OMe oligos on R848-driven IP-10 in THP-1 (in words): 3-mer oligos overnight; for TLR8 potentiation in THP-1, short 2′OMe oligos (IP-10; in words): oligos overnight
T2 sequence (Q9NR97 27-1041): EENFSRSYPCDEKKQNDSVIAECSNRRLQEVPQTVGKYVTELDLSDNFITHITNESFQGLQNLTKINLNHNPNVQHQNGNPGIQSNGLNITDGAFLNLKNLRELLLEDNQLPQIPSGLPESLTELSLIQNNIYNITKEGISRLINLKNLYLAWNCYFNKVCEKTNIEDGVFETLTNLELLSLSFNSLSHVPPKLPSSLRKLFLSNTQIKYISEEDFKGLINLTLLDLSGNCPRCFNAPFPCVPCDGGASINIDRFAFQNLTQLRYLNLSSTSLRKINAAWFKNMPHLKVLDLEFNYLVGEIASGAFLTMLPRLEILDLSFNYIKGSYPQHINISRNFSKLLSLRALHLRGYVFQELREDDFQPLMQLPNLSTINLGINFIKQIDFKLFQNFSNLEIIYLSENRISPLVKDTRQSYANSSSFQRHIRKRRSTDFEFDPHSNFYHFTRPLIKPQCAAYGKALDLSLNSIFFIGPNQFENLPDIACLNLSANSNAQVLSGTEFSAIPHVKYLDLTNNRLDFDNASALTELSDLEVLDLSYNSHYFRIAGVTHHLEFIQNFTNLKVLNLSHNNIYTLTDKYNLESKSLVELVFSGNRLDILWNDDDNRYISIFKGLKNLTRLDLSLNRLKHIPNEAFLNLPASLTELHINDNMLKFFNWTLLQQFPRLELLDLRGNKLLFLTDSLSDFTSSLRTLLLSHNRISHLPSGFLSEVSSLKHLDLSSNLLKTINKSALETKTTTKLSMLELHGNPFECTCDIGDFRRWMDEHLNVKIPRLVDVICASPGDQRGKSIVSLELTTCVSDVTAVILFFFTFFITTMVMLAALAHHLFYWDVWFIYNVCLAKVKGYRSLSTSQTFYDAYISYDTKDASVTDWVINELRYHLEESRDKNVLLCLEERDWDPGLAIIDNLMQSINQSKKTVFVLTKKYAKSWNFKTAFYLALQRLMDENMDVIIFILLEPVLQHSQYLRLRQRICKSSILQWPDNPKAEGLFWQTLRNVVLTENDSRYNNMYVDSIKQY
Method: FIG. 34: THP-1 cells were pre-treated overnight with […] ASOs, prior to R848 stimulation for 7h. […] All ASO conditions are with R848 co-stimulation.
FIG. 35: THP-1 cells were pre-treated overnight with indicated concentrations of ASOs, prior to R848 stimulation for 7h. […] All ASO conditions are with R848 co-stimulation. SEM and two-way ANOVA with Tukey's multiple comparisons to 660-3b condition are shown.
FIG. 36: A, B, C) HEK-TLR8 cells expressing an NF-κB-luciferase reporter were pre-treated 40 min with […] oligos, prior to Motolimod stimulation (400 nM [B] or 600 nM [A and C] overnight). Data shown are averaged from 2 (B) independent or a single experiment (A and C), completed with 3 biological triplicate. The NF-κB-luciferase values are reported to the Motolimod condition. D) THP-1 cells were pre-treated overnight with […] 3-mer oligos, prior to R848 stimulation ([…]) for 7h. IP-10 levels were measured by ELISA. Data shown are averaged from a single experiment completed with 3 biological triplicate, reported to the R848 only condition. A-E) All oligo conditions are with Motolimod or R848 co-stimulation.
Human IP-10 and IFN-β levels were measured using supernatants from the different cultures and were quantified using IP-10 (BD Biosciences, #550926) or IFN-β (PBL assay science, #41415-1) ELISA kits respectively, according to the manufacturers' protocol. Tetramethylbenzidine substrate (Thermo Fisher Scientific) was used for quantification of the cytokines on a Fluostar OPTIMA (BMG LABTECH) plate-reader.

Substance | TNFα production induced by guanosine (in words) [1] | effect of 3-mer 2′OMe oligos on R848-driven IP-10 in THP-1 (in words) [2] | also measured
mG*mC*mG*mG*mU*A*T*C*C*A*T*G*T*C*C*mC*mA*mG*mG*mC (mG*mC*mG*mG*mU*dA*dT*dC*dC*dA*dT*dG*dT*dC*dC*mC*mA*mG*mG*mC; antisense) [C2-Mut1] | significantly inhibiting TNFα levels | – | –
mC*mG*mU*T*T*C*C*C*C*C*C*C*C*C*C*C*C*C*C*C (CGUTTCCCCCCCCCCCCCCC; antisense; sugars from the 5' end m3 d17, all phosphorothioate, methylation of C not given here) [[C2]Mut1-v3-dC] | did not | – | –
mGmAmU (mG*mA*mU) [GAU, 3-mer 2′OMe PS oligo] | – | robustly the most potent | –
mGmUmA (GUA; all 2'-O-methyl, backbone not given here; further chemistry not fully specified) [shortMut1-3b] | – | robustly inhibitory | –
mGmUmC (mG*mU*mC) [GUC, 3-mer 2′OMe PS oligo] | – | robustly inhibitory | –
mG*mG*mU*A*T*C*C*C*C*C*C*C*C*C*C*C*C*C*C*C (GGUATCCCCCCCCCCCCCCC; antisense; sugars from the 5' end m3 d17, all phosphorothioate, methylation of C not given here) [[C2]Mut1-dC] | significantly inhibiting TNFα levels | – | –
mCmUmU (antisense mC*mU*mU) [660-3] | – | – | TLR8 potentiation in THP-1, short 2′OMe oligos (IP-10; in words) [2]: did not work; TLR8 potentiation in THP-1, short 2′OMe oligos (IP-10; in words) ([2]; listed as CUU): did not potentiate TLR8
mGmUmG (mG*mU*mG) [GUG, 3-mer 2′OMe PS oligo] | – | robustly inhibitory | –
mGmUmU (mG*mU*mU) [GUU, 3-mer 2′OMe PS oligo] | – | robustly inhibitory | –
mUmCmG (antisense mU*mC*mG) [660-3b] | – | – | TLR8 potentiation in THP-1, short 2′OMe oligos (IP-10; in words) [2]: significantly potentiated TLR8 sensing
